{"source": "paper PMC8899516", "about": "“Structure-Activity Relationship Studies of 4-((4-(2-fluorophenyl)piperazin-1-yl)methyl)-6-imino-N-(naphthalen-2-yl)-1,3,5-triazin-2-amine (FPMINT) Analogues as Inhibitors of Human Equilibrative Nucleoside Transporters” (Frontiers in Pharmacology, 2022)", "system": "ENT1", "experiment": "Western blotting of ENT1 protein expression", "format": "cell-based, human", "details": "50 µM, 24 h or 48 h", "method": "PK15NTD/ENT1 and PK15NTD/ENT2 cells were grown to confluence in 10-cm culture dishes and treated with 50 µM of compound 3c or an equivalent volume of a vehicle (0.5% DMSO) for 24 h or 48 h. The cells were washed thrice with ice-cold PBS. Total protein was extracted by cell lysis in a lysis buffer (5 mM sodium monophosphate, pH 8) with a protease inhibitor cocktail (Sigma, St Louis, MO, United States; 1:1,000 [v/v]). The protein content was measured by bicinchoninic acid assay. Protein samples were separated by 12.5% sodium dodecyl sulfate–polyacrylamide gel electrophoresis (SDS-PAGE) and blotted onto polyvinylidene difluoride (PVDF) membranes. […] The membranes were then again washed, and the bound secondary antibodies were detected using an enhanced chemiluminescence kit (Bio-Rad, Hercules, CA, United States). […] To semi-quantify the ENT1 and ENT2 protein levels, the same membranes were washed three times with a stripping buffer for 10 min at room temperature, and the protein expression level of β-actin was measured using monoclonal mouse anti-β-actin primary antibodies (1:3,000 [v/v] dilution in a blocking solution). […]\nFIGURE 5 Effects of compound 3c on cytotoxicity and protein expressions of ENT1 and ENT2. […] Total ENT1 and ENT2 from whole-cell lysates were also detected for a comparison. β-actin served as an internal reference. […]"}
{"compound": "Cc1cccc(Nc2nc(N)nc(CN3CCN(c4ccc(F)cc4)CC3)n2)c1", "note": "[Compound 3c]", "values": [{"measurement": "protein expression level of ENT1", "value": "unaltered"}]}
